Test results published in patent publication US20120302616A1, “METHOD OF TREATMENT OF OBSESSIVE COMPULSIVE DISORDER WITH ONDANSETRON” (priority 2010, published 2012).
Values joined by “and” are separate entries in the source; they are usually repeats but may differ in a detail not shown here. Identical values can stand only once.

Legend:
[1] = test system: patients with treatment-resistant OCD; assay: Side effects and vital signs in the SRI plus antipsychotic augmentation study; assay type: in vivo, human
Method: The Y-BOCS, Montgomery-Asberg Depression Rating Scale (MADRS) (see Montgomery, S. A., BR J PSYCHIATRY 1979; 134:382-389) was administered at screening and baseline, and these assessments were repeated at every follow-up visit at 2-week intervals, along with the Clinical Global Impressions-Improvement (CGI-I) rating (see Guy, W. ECDEU Assessment Manual for Psychopharmacology. US Dept Health, Education, and Welfare publication (ADM) 76-338. Rockville, Md.: National Institute of Mental Health; 1976:218-222) and an unpublished Drug Effect scale. The Drug Effect scale asked subjects to rate “How anxious are you now?” on a scale of zero (not at all) to 10 (“the most anxious I have ever been”). Similar rating questions have been “Do you experience appearance or increment in frequency of headaches?”, “Do you experience appearance or increment in frequency of headaches fatigue?” and “Do you experience appearance or increment in frequency of headaches constipation” and so on regarding other common ondansetron side effects (diarrhea, urinary retention, itching, and dizziness). Furthermore, each evening during the first week of study medication, a study psychiatrist called the subject to ask for major or unexpected collateral effects (as chest pain, an unexplained skin rash, or tremors.). […] (See Mittmann, N. et al., AM J PSYCHIATRY 1997; 154:320-321) Subjects with MADRS scores ≧18 were excluded. Ratings were administered by an investigator who was blind to the treatment condition of the patients.
One patient reported a mild increase in anxiety levels, which lasted only one night. No change in mean pulse rate or mean blood pressure was observed. […] The daily dose of 1 mg/day divided in twice daily administration, approximately 5% of the minimum dose recommended for emesis and nausea treatment was reached after 6 weeks and maintained until the 12th week.

[2] = test system: patients with treatment-resistant OCD; assay: Ondansetron augmentation of SRI therapy, single-blind 12-week study with 4-week discontinuation follow-up (YBOCS, CGI); assay type: in vivo, human; set-up: reduction in CGI-I from baseline: concentration or dose not given beside the values; settings: for CGI-I Score / YBOCS % Reduction / YBOCS Score: individual patients (21); for Compulsion Subdomain YBOCS % Reduction / Obsession Subdomain YBOCS % Reduction / Compulsion Subdomain YBOCS Score / Obsession Subdomain YBOCS Score: individual patients
Method: Twenty-one patients with a DSM-IV diagnosis of treatment-resistant OCD, under stable treatment with SRIs approved by the FDA for OCD therapy, received 12 weeks of single-blind ondansetron augmentation initiated at a dose of 0.25 mg twice daily for 2 weeks, and titrated to 0.5 mg twice daily for 10 weeks. Patients were rated every two weeks using the Yale Brown Obsessive Compulsive Scale (YBOCS) and Clinical Global Impressions Scale (CGI). Treatment-resistant patients were defined as having completed an adequate trial of SRIs at a moderate to high dose for at least 12 weeks and still having a YBOCS severity of >24, and CGI-Severity of ≧4. Treatment response was defined as an additional 25% reduction in YBOCS score from YBOCS score at the initiation of ondansetron augmentation, an end of treatment (EOT) period YBOCS of ≦24, and CGI-Improvement (CGI-I) of ≦2. Additionally, ondansetron was discontinued after 12 weeks and patients were followed up for another 4 weeks for relapse in YBOCs symptoms. The obsession and compulsion subdomains of the Y-BOCS were also analyzed to determine whether ondansetron would selectively affect one subdomain or the other.

[3] = test system: mesenteric bed or the nerves in the heart; settings: animal studies; cited from earlier work
[4] = first 2 weeks of treatment, n=14
[5] = Week 14 (after discontinuation), Non-Responders
[6] = Week 14 (after discontinuation), Responders
[7] = Week 16 (after discontinuation), Non-Responders
[8] = Week 16 (after discontinuation), Responders

For `Cc1nccn1CC1CCc2c(c3ccccc3n2C)C1=O` (stereo not drawn) [ondansetron], the “subjects with significant or lasting side effects (such as constipation)” value ([1]; 12 weeks) was “None”, the “subjects with significant side effects or worsening of OC symptoms” value ([1]; at 6 weeks, fourteen subjects) was “None” and the “patients with decreased appetite” value [1, 4] was “two”. The patients with headache [1, 4] was “two”, the “patients with mild increase in anxiety levels” value ([1]; lasted only one night, n=14) was “One” and the “mean pulse rate or mean blood pressure” value ([1]; n=14) was “No change”. For the same compound, the Side effects severity ([1]; throughout the study, n=14) was “mild to moderate”, the tolerability of treatment ([2]; 0.25 mg twice daily 2 weeks, then 0.5 mg twice daily 10 weeks) was “well tolerated” and the “CGI-I Score” value ([2]; 6 Weeks) was 2 (7×) and 3 (2×) and 5 (6×) and 1 (3×) and 4 (3×). For the same compound, the “YBOCS % Reduction” value ([2]; 6 Weeks) was 16.00% and 0.00% (3×) and 5.00%, the “YBOCS Score” value ([2]; 6 Weeks) was 22 and 19 (3×) and 28 and 21 (2×) and 27 and 24 (2×) and 14 and 29 (3×) and 38 and 32 and 17 and 25 and 16 and 26 and 31 and the “Compulsion Subdomain YBOCS % Reduction” value ([2]; 6 weeks, Non-Responders) was −7.14% and 5.00% and −13.33% and −15.38% and 13.33% and 14.29% and 0.00% and 12.50% and −16.67%. For the same compound, the “Obsession Subdomain YBOCS % Reduction” value ([2]; 6 weeks, Non-Responders) was 16.67% and 0.00% (3×) and 5.00% and −7.69% and −6.67% and 6.25% and 12.50%, the “Compulsion Subdomain YBOCS % Reduction” value ([2]; 6 weeks, Responders) was 38.46% and 33.33% (2×) and 29.41% and 52.94% and 25.00% and 58.33% and 50.00% and 18.75% and 53.33% and 40.00% and 16.67% and the “Obsession Subdomain YBOCS % Reduction” value ([2]; 6 weeks, Responders) was 26.67% and 35.29% and 25.00% (3×) and 31.25% and 33.33% and 23.08% and 20.00% and 29.41% and 28.57% and 15.38%. The “CGI-I Score” value ([2]; 12 Weeks) was 1 (10×) and 5 (8×) and 4 and 2 (2×), the “YBOCS % Reduction” value ([2]; 12 Weeks) was 44.00% and 50.00% and 2.50% and −7.14% and the “YBOCS Score” value ([2]; 12 Weeks) was 21 (2×) and 17 and 28 and 14 (2×) and 16 (3×) and 19 (2×) and 23 and 13 and 25 and 39 and 34 and 30 (2×) and 29 and 15 and 27. The “average reduction in CGI-I scores for the whole group” value ([2]; 12 weeks) was 46%, the “Compulsion Subdomain YBOCS % Reduction” value ([2]; 12 weeks, Non-Responders) was 7.14% and 0.00% (2×) and −26.67% and −23.08% and 6.67% and 14.29% and 12.50% and −8.33% and the “Obsession Subdomain YBOCS % Reduction” value ([2]; 12 weeks, Non-Responders) was 16.67% and 14.29% and 5.00% and 0.00% (2×) and −7.69% and −7.14% and 12.50% (2×). The “Compulsion Subdomain YBOCS % Reduction” value ([2]; 12 weeks, Responders) was 38.46% and 46.67% (2×) and 41.18% and 58.82% and 45.00% and 58.33% and 64.29% and 43.75% and 53.33% and 33.33% and 41.67%, the “Obsession Subdomain YBOCS % Reduction” value ([2]; 12 weeks, Responders) was 46.67% and 52.94% and 43.75% (2×) and 44.44% and 33.33% (3×) and 30.77% and 35.29% and 35.71% and 46.15% and the “difference between YBOCS score at baseline and after 12 weeks” value ([2]; Non-responders) was 2.9%. The “Compulsion Subdomain YBOCS Score, Mean” value ([2]; Week 2, Non-Responders) was 14.78, the “Obsession Subdomain YBOCS Score, Mean” value ([2]; Week 2, Non-Responders) was 14.67 and the “Compulsion Subdomain YBOCS Score” value ([2]; Week 2, Non-Responders) was 15. For the same compound, the “Obsession Subdomain YBOCS Score” value ([2]; Week 2, Non-Responders) was 12, the “Compulsion Subdomain YBOCS Score, Mean” value ([2]; Week 2, Responders) was 11.33 and the “Obsession Subdomain YBOCS Score, Mean” value ([2]; Week 2, Responders) was 12.58. The “Compulsion Subdomain YBOCS Score” value ([2]; Week 2, Responders) was 11 and 12 (5×) and 10 (3×) and 16 and 5 and 14, the “Obsession Subdomain YBOCS Score” value ([2]; Week 2, Responders) was 12 (4×) and 14 (3×) and 10 and 11 (2×) and 13 and 16 and the “Compulsion Subdomain YBOCS Score, Mean” value ([2]; Week 4, Non-Responders) was 15.00. For the same compound, the “Obsession Subdomain YBOCS Score, Mean” value ([2]; Week 4, Non-Responders) was 14.44, the “Compulsion Subdomain YBOCS Score” value ([2]; Week 4, Non-Responders) was 15 and the “Obsession Subdomain YBOCS Score” value ([2]; Week 4, Non-Responders) was 11. For the same compound, the “Compulsion Subdomain YBOCS Score, Mean” value ([2]; Week 4, Responders) was 10.08, the “Obsession Subdomain YBOCS Score, Mean” value ([2]; Week 4, Responders) was 11.50 and the “Compulsion Subdomain YBOCS Score” value ([2]; Week 4, Responders) was 9 (3×) and 11 (2×) and 12 and 14 and 5 and 10 (2×) and 13 and 8. For the same compound, the “Obsession Subdomain YBOCS Score” value ([2]; Week 4, Responders) was 11 (3×) and 13 (4×) and 12 (2×) and 9 and 10 (2×), the “Compulsion Subdomain YBOCS Score, Mean” value ([2]; Week 6, Non-Responders) was 15.00 and the “Obsession Subdomain YBOCS Score, Mean” value ([2]; Week 6, Non-Responders) was 14.56. The “Compulsion Subdomain YBOCS Score” value ([2]; Week 6, Non-Responders) was 15, the “Obsession Subdomain YBOCS Score” value ([2]; Week 6, Non-Responders) was 10 and the “Compulsion Subdomain YBOCS Score, Mean” value ([2]; Week 6, Responders) was 9.50. The “Obsession Subdomain YBOCS Score, Mean” value ([2]; Week 6, Responders) was 10.83, the “Compulsion Subdomain YBOCS Score” value ([2]; Week 6, Responders) was 8 (2×) and 10 (3×) and 12 and 15 and 5 and 7 (2×) and 13 and 9 and the “Obsession Subdomain YBOCS Score” value ([2]; Week 6, Responders) was 11 (4×) and 12 (4×) and 9 (2×) and 10 (2×). The “Compulsion Subdomain YBOCS Score, Mean” value ([2]; Week 8, Non-Responders) was 15.22, the “Obsession Subdomain YBOCS Score, Mean” value ([2]; Week 8, Non-Responders) was 14.44 and the “Compulsion Subdomain YBOCS Score” value ([2]; Week 8, Non-Responders) was 13. The “Obsession Subdomain YBOCS Score” value ([2]; Week 8, Non-Responders) was 10, the “Compulsion Subdomain YBOCS Score, Mean” value ([2]; Week 8, Responders) was 8.83 and the “Obsession Subdomain YBOCS Score, Mean” value ([2]; Week 8, Responders) was 10.00. For the same compound, the “Compulsion Subdomain YBOCS Score” value ([2]; Week 8, Responders) was 8 and 9 (2×) and 10 (3×) and 7 and 15 and 5 (2×) and 12 and 6, the “Obsession Subdomain YBOCS Score” value ([2]; Week 8, Responders) was 8 (2×) and 10 (5×) and 12 (3×) and 9 (2×) and the “Compulsion Subdomain YBOCS Score, Mean” value ([2]; Week 10, Non-Responders) was 15.44. The “Obsession Subdomain YBOCS Score, Mean” value ([2]; Week 10, Non-Responders) was 14.44, the “Compulsion Subdomain YBOCS Score, Mean” value ([2]; Week 10, Responders) was 8.17 and the “Obsession Subdomain YBOCS Score, Mean” value ([2]; Week 10, Responders) was 9.33. For the same compound, the “Compulsion Subdomain YBOCS Score” value ([2]; Week 10, Responders) was 8 (3×) and 9 and 10 (2×) and 7 and 11 (2×) and 5 (2×) and 6, the “Obsession Subdomain YBOCS Score” value ([2]; Week 10, Responders) was 8 (3×) and 10 (4×) and 9 (4×) and 12 and the “Compulsion Subdomain YBOCS Score, Mean” value ([2]; Week 12, Non-Responders) was 15.22. For the same compound, the “Obsession Subdomain YBOCS Score, Mean” value ([2]; Week 12, Non-Responders) was 14.22, the “Compulsion Subdomain YBOCS Score, Mean” value ([2]; Week 12, Responders) was 7.92 and the “Obsession Subdomain YBOCS Score, Mean” value ([2]; Week 12, Responders) was 8.83. For the same compound, the “Compulsion Subdomain YBOCS Score” value ([2]; Week 12, Responders) was 8 (3×) and 10 (2×) and 7 (3×) and 11 and 5 (2×) and 9, the “Obsession Subdomain YBOCS Score” value ([2]; Week 12, Responders) was 8 (4×) and 9 (4×) and 10 (2×) and 11 and 7 and the “Compulsion Subdomain YBOCS Score, Mean” value [2, 5] was 15.00. The “Obsession Subdomain YBOCS Score, Mean” value [2, 5] was 14.00, the “Compulsion Subdomain YBOCS Score, Mean” value [2, 6] was 10.67 and the “Obsession Subdomain YBOCS Score, Mean” value [2, 6] was 11.25. For the same compound, the “Compulsion Subdomain YBOCS Score” value [2, 6] was 8 (2×) and 13 (3×) and 11 (3×) and 6 and 12 (2×) and 10, the “Obsession Subdomain YBOCS Score” value [2, 6] was 9 (2×) and 14 (2×) and 12 (3×) and 13 and 11 (2×) and 8 and 10 and the “Compulsion Subdomain YBOCS Score, Mean” value [2, 7] was 14.78. For the same compound, the “Obsession Subdomain YBOCS Score, Mean” value [2, 7] was 13.67, the “Compulsion Subdomain YBOCS Score, Mean” value [2, 8] was 11.50 and the “Obsession Subdomain YBOCS Score, Mean” value [2, 8] was 11.67. For the same compound, the “Compulsion Subdomain YBOCS Score” value [2, 8] was 8 (2×) and 13 (4×) and 14 and 12 (2×) and 15 and 6 and 11, the “Obsession Subdomain YBOCS Score” value [2, 8] was 9 (2×) and 15 and 13 and 12 (3×) and 14 (2×) and 8 and 11 (2×) and the “overall ondansetron effects for obsessions versus compulsions” value ([2]; YBOCS subdomains) was “comparable”. For the same compound, the “reduction in CGI-I from baseline” value ([2]; responders, after 12 weeks) was 77%, the “reduction in YBOCS from baseline” value ([2]; responders, after 12 weeks) was 44% and the “effect on the mesenteric bed or the nerves in the heart” value [3] was “did not appear to have effect”.
